Values after ≈ are worked out from the molar mass of the structure shown. Read-outs that look alike come from different tables or passages of the source.
Key:
[1] = Human plasma protein binding (PPB); type: in vitro ADME; conditions: human, plasma; read-out: Human PPB (converted)
[2] = system: Enterococcus faecalis ATCC 51299 (vanA-positive; vancomycin-resistant); experiment: In vitro antibacterial activity, MIC (UCL), VRE; type: cell-based; conditions: read-out: VRE MIC
In short: (§1)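 Each organism was taken from overnight tryptone soya agar, suspended in PBS at A600 0.1, diluted 1:100 in isosensitest broth and added to serially diluted compound (32 to 0.03 μg/mL).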

[3] = system: Staphylococcus aureus NCTC 13373 (mecA-positive; methicillin-resistant); experiment: In vitro antibacterial activity, MIC (UCL School of Pharmacy assay), MRSA; type: cell-based; conditions: Staphylococcus aureus, read-out: MRSA MIC
In short: as §1

[4] = HEK293 toxicity, 96-well dose-response (UCL; MTT or resazurin, with or without recovery); type: cell-based, human; conditions: human, HEK293 cells; 32 μg/mL; read-out: spread of Dmax values comparing recovery and non-recovery conditions
Procedure: The importance of balancing potency vs MRSA and cytotoxicity led us to examine a subset of compounds more thoroughly for toxicity against human embryonic kidney cell line HEK293. […] Dmax is a parameter that quantifies toxicity at the highest tested concentration (32 μg/mL for all compounds), calculated as reciprocal percentage of viable cells (100 – viability%), where cells either were allowed to recover or viability was measured immediately after treatment. […] Our efforts focused on trying to replicate the original toxicity experiments (by CO-ADD) with tamoxifen using a protocol modified for use with 96-well plates. Given the variability of protocols and results in the literature,[28] it was important to compare with a standard protocol we have reliably used in our own laboratories.[29]−[33] […] Truly “non-toxic” compounds might be expected to show Dmax < 50% for all experiment variations, e.g., 861. […] A large spread of Dmax values comparing recovery and non-recovery conditions larger than 20% is perhaps indicative of a mechanism of toxicity that persists beyond exposure, i.e., cytotoxic compounds that continue to induce toxicity as cells recover and restart dividing, for example, compounds 865, 870, 871, 980, and 981. […] This variability could be driven by interference of the compounds with the fluorescence readout or resorufin build-up as previously described.[27]
HEK293 cells (ATCC, UK) at passage 32 were a kind gift from Dr. Ben Allsop from the Translational Research Office at University College London. Cells were tested for mycoplasma using a MycoAlert Detection Kit (Lonza, Switzerland) as per manufacturer instructions, frozen stocks were stored in liquid nitrogen, and cells were re-tested whenever a new aliquot was thawed.
Cells were maintained in DMEM (Sigma-Aldrich, UK) supplemented with 10% heat-inactivated FBS (Sigma-Aldrich, UK), 1% GlutaMax (ThermoFisher, UK), and 1% sodium pyruvate (Lonza, UK) without antibiotics in an incubator at 37 °C and 5% CO2. Media was changed every 2 days, and cells were passaged every 3–4 days at a subcultivation ratio of 1:10, by detaching the cells with phenol-free TrypLE Express (ThermoFisher, UK), after washing with HBSS Ca^2+/Mg^2+ (ThermoFisher, UK). Up to 55 passages were used throughout the experiments.
(a) Cell seeding: At subculture, a dilute solution of cells was counted using Trypan Blue (Sigma-Aldrich, UK) and a hemocytometer. Cells were further diluted to 7000 or 50 000 cells/mL for experiments.
For recovery experiments, 700 cells (100 μL) were seeded in 96-well plates and incubated for 48 h while cells reached exponential phase.
For non-recovery experiments, 5000 cells (100 μL) were seeded in 96-well plates and incubated for 48 h while cells reached confluence. This is the same number of cells as per the CO-ADD protocol where 384-well plates were used, but we extended the growth time to 48 h to produce a similar confluency.
Stock solutions were diluted 100 times (to 1% DMSO) to 32 μg/mL in full medium (vortexed briefly) and then serially diluted using a digital pipet (Explorer, Eppendorf, Germany) at a dilution factor of 2 to a final concentration of […].
(c) Dosing experiments: At the specified time after seeding, media was removed from cells, cells were washed with HBSS Ca^2+/Mg^2+ (100 μL), and 100 μL of diluted compounds were added as per Supporting Information - Biology, Figure S4, and incubated for 24 h.
After treatment, solutions were removed, and cells were washed with HBSS Ca^2+/Mg^2+. For non-recovery experiments, viability was determined immediately as described below.
For recovery experiments, fresh media was added to plates (100 μL) and cells were returned to the incubator for another 72 h, after which viability was recorded as described below.
i. MTT assay: 3-[4,5-Dimethylthiazol-2-yl]-2,5-diphenyltetrazolium bromide (MTT) (Sigma-Aldrich, UK) was dissolved in sterile PBS at 5 mg/mL with sonication (20 min), protected from light. […]

Aqueous solubility = type: physicochemical; conditions: thermodynamic from solid; read-out: Aqueous Solubility
[5] = system: S. aureus ATCC 25923 (methicillin-susceptible); experiment: In vitro antibacterial activity, MIC (UCL), MSSA; type: cell-based, Staphylococcus aureus; conditions: Staphylococcus aureus; read-out: MSSA MIC
In short: as §1

[6] = system: Staphylococcus aureus ATCC 43300 MRSA; experiment: CO-ADD antibacterial assay (growth inhibition, MIC), MRSA; type: cell-based; conditions: read-out: MRSA MIC (CO-ADD)
Procedure: Hit Confirmation of active compounds by whole cell growth inhibition assays was conducted as an 8-point dose response to determine the Minimum Inhibitory Concentration (MIC), in duplicate (n=2). The inhibition of growth is measured against those microorganisms that […]
Included in the Hit Confirmation were 5 bacteria: Escherichia coli, Klebsiella pneumoniae, Acinetobacter baumannii, Pseudomonas aeruginosa and Staphylococcus aureus, and 2 fungi Candida albicans and Cryptococcus neoformans. […]
Assay Parameters Bacteria Fungi HEK293 Haemolysis […]
Duplicate (n=2) Duplicate (n=2) Duplicate (n=2) Duplicate (n=2)
QC Control MIC: Control MIC: Control CC50: Control HC10:
Non-Binding Non-Binding TC, 384-well Polypropylene
Plates Surface (NBS), Surface (NBS), black wall/clear 384-well and 384-well plate 384-well plate bottom polystyrene 384-
Cation-adjusted Yeast Nitrogen DMEM
Media Mueller Hinton Base supplemented 0.9% NaCl
Hit Confirmation outcomes are detailed in individual Project reports, personalised for each Project Submission for each CO-ADD user.
Please see your data sheet with file extension P0XXX_HC_data.xlsx, for example CO-ADD Project P0100, P0100_HC_data.xlsx
Study: HC_data ID: HC-Procedures & Materials
Date: Last updated June 2018 Confidential Page 3 of 11
(1 picture or pasted object on this page, not shown here)
Samples were provided by the collaborator and stored frozen at -20 °C. Samples were prepared in DMSO and water to a final testing concentration of 32 µg/mL or 20 µM (unless otherwise indicated in the data sheet) and serially diluted 1:2 fold for 8 times. Each sample concentration was prepared in 384-well plates, non-binding surface plate (NBS; Corning 3640) for each bacterial/fungal strain, tissue-culture treated (TC-treated; Corning 3712/3764) black for mammalian cell types and polypropylene 384-well (PP; Corning 3657) for haemolysis assays, all in duplicate (n=2), and keeping the final DMSO concentration to a maximum of 0.5%. All the sample preparation was done using liquid handling robots. […]
detailed in the Data sheet for the individual Project.
All bacteria were cultured in Cation-adjusted Mueller Hinton broth (CAMHB) at 37 °C overnight. A sample of each culture was then diluted 40-fold in fresh broth and incubated at 37 °C for 1.5-3 h. The resultant mid-log phase cultures were diluted (CFU/mL measured by OD600), then added to each well of the compound containing plates, giving a cell density of 5×10^5 CFU/mL and a total volume of 50 µL. All the plates were covered and incubated at 37 °C for 18 h without shaking.
Inhibition of bacterial growth was determined measuring absorbance at 600 nm (OD600), using a Tecan M1000 Pro monochromator plate reader. The percentage of growth inhibition was calculated for each well, using the negative control (media only) and positive control (bacteria without inhibitors) on the same plate as references.
The percentage of growth inhibition was calculated for each well, using the negative control (media only) and positive control (bacteria without inhibitors) on the same plate. The MIC […]
by an inhibition ≥ 80%. In addition, the maximal percentage of growth inhibition is reported as DMax, indicating any compounds with partial activity.
Date: Last updated June 2018 Confidential Page 5 of 11
Material Code Brand/Supplier Cat No.
Compound preparation plate, Polypropylene PP Corning 3364
Assay Plates – Antimicrobial
Non-binding surface NBS 384w Corning 3640
Assay Plates – Cytotoxicity
Tissue culture treated Black/Clear bottom 384w Corning 3712
Assay Plates - Haemolysis PP-Haem Corning 3657 […]
Growth media - bacteria CAMHB Bacto Laboratories 212322
Culture agar - fungi YPD Becton Dickinson 242720
Growth media - fungi YNB Becton Dickinson 233520
Resazurin Sigma-Aldrich R7017
Dulbecco's Modified Eagle Medium DMEM Life Technologies 11995-073
Foetal Bovine Serum FBS Bovogen FFBS-500
0.9% NaCl Saline Baxter AHF7124
Sample Name Sample ID MW Conc. Solvent Source […]

SMILES | MIC [6] [mg/L] | other results
Cc1ccc(-c2c(-c3ccccn3)nc3n2CCC3)cc1 [compound 865] |  | fraction unbound [1]: 0.08; MIC [2]: 16 mg/L (≈ 58.1 µM); MIC ([3]; 16 h): 4 mg/L (≈ 14.5 µM); MIC [3]: 4 mg/L (≈ 14.5 µM); Dmax spread between recovery and non-recovery conditions at 24 h, 32 μg/mL [4]: > 20%; solubility (Aqueous solubility): 32 µM (≈ 8.81 µg/mL); MIC [5]: 1 mg/L (≈ 3.63 µM)
c1ccc(-c2nc3n(c2-c2ccc4c(c2)OCCO4)CCC3)nc1 [OSA_000819] | 16 (≈ 50.1 µM) | 
c1ccc(-c2nc3n(c2-c2ccc4c(c2)CCO4)CCC3)nc1 [OSA_000827] | 32 (≈ 105 µM) | 
c1ccc(-c2nc3n(c2-c2ccc4c(c2)OCC4)CCC3)nc1 [OSA_000828] | 32 (≈ 105 µM) | 
CSc1ccc(-c2c(-c3ccccn3)nc3n2CCC3)cc1 [OSA_000824] | 4 (≈ 13 µM) | 
c1ccc(-c2nc3n(c2-c2ccc4ccsc4c2)CCC3)nc1 [OSA_000830] | 4 (≈ 12.6 µM) | 
COc1ccc(-c2c(-c3ccccn3)nc3n2CCC3)cc1 [OSA_000823] | 16 (≈ 54.9 µM) | 
c1cc(-c2nc3n(c2-c2ccc4c(c2)OCO4)CCC3)ccn1 [OSA_000817] | > 32 | 
CSc1cccc(-c2c(-c3ccccn3)nc3n2CCC3)c1 [OSA_000826] | 4 (≈ 13 µM) | 
COc1cccc(-c2c(-c3ccccn3)nc3n2CCC3)c1 [OSA_000825] | 16 (≈ 54.9 µM) | 
